Data from a melting point compilation (Tetko et al.; mined from patent text by program, amines drawn as free bases though some values may be those of a salt).

Structure (SMILES)	melting point [°C]
CC(Cl)(Cl)C(NC(=O)c1cccnc1)NC(=NC#N)Nc1ccc(Cl)nc1 (stereo not drawn)	212 to 213
CC(C)c1cccc(C(C)C)c1NC(=O)CNCC1(Nc2ccccc2)CCCCC1	104 to 106
CN1CCC(OC2c3ccccc3CCn3c2nc(-c2ccc(Br)cc2)c3Cl)CC1 (stereo not drawn)	169
Cc1c(O)ncnc1C(F)F	166 to 167
Cc1nn(C)c2c(=O)n(C)c(=O)n(C)c12	210 to 211
CN1CC(=O)N(c2ccc(C#N)c(C(F)(F)F)c2)C1=S	220 to 221
N#Cc1ccc(OCc2cccnc2)cc1F	105 to 110
CC(C)C[C@H](NC(=O)[C@@H]1CCCN1c1nc2ccccc2c(=O)o1)C(=O)NCC(N)=O	199 to 201
Cn1c(COc2ccc(C#N)cc2)nc2nc(CO)ccc21	172
COC(=O)CCc1ccc(CCc2csc(NC(C)=O)n2)s1	104 to 106
Cc1ccc(OCC(=O)O)c2sc3ccccc3c(=O)c12	198 to 235
COc1cccc(C(=O)O)c1OC(C)=O	139 to 140
CON(C)C(=O)NC(CS)Cc1ccccc1 (single isomer, unassigned; (+))	50
O=C(c1cc(N2CCC3(CC2)OCCO3)ccn1)N(O)Cc1ccccc1	98 to 102
C=CCOc1ccc(CC(NC(O)OC(C)(C)C)C(=O)NC(C(=O)NC(C=C)C(=O)OC)C(C)C)cc1 (stereo not drawn)	104 to 106
Cc1ccc2cc(NS(=O)(=O)c3cc(Cl)ccc3Cl)ccc2n1	125
CC(C)(C)OC(=O)C1Cc2ccccc2CN1C(=O)CBr (stereo not drawn)	92 to 95
CSc1ncnn1C[C@]1(c2ccc(F)cc2F)O[C@@H]1c1ccccc1Cl (relative stereo)	116 to 117
O=C(OC1CCCCC1)c1ccc(Cl)c([N+](=O)[O-])c1	57 to 58
NS(=O)(=O)c1ccc(-c2[nH]c3ccc(Cl)cc3c2-c2cccc(Cl)c2)cc1	249 to 251
CCCN(CCC)C(=O)Cc1ccc(OCc2ccccc2)c([N+](=O)[O-])c1	67 to 68
CCCc1ccc2nnc(C(=O)OCC)cc2c1	88 to 89

Structure (SMILES)	melting point [°C]
COC(=O)c1ccc(CCC(O)CCc2ccc(C(=O)OC)cc2)cc1	129 to 130
COC(=O)c1cccc(Oc2ccc(NC(=O)c3ccc([N+](=O)[O-])cc3Br)cc2NC(=O)c2ccc([N+](=O)[O-])cc2Br)c1C(=O)OC	138 to 142
CCOC=Nc1c(C#N)cnn1-c1ccc(Cl)c(Cl)c1Cl	131 to 132
COC(=O)CCCc1cc2nc(C(F)(F)F)ccc2n1S(=O)(=O)c1ccccc1	95
N#CN=c1[nH]c2cc(Cl)c(Cl)c([N+](=O)[O-])c2[nH]c1=O	280 to 285
NC(=O)NN=Cc1ccc(Oc2ccc3c(c2)CCCC3)cc1	202 to 204
CCCCN(Cc1ccc(-c2ccccc2S(=O)(=O)NC(C)(C)C)cc1)C(=O)Cl	128 to 129
CC1(C)CC(c2ccc(Cl)cc2)=C(c2ccc(S(C)(=O)=O)cc2)C1	144 to 145
COc1ccc(N2CCN(c3c(C)c(C)c4c(c3C(C)C)CC(C)(C)O4)CC2)cc1	192 to 194
CCOc1cc2nc(NC)nc(-c3cccc(-c4cccnc4SC)c3)c2cc1OCC	105 to 107
CC(C)c1cccc(-c2ccc(F)cc2)c1/C=C/CO	71 to 72
COc1cc(C#N)ccc1-c1cc(-c2ccc(C#N)cc2)on1	243 to 244
COc1ccc2c(c1)c(CC(=O)OC(OC(C)=O)c1ccccc1)c(C)n2C(=O)c1ccc(Cl)cc1 (stereo not drawn)	93 to 94
CC(Sc1ncnc2[nH]cnc12)c1oc2ccc(Br)cc2c(=O)c1-c1ccccc1 (stereo not drawn)	234 to 237
CCCCCCN(C)c1ccc(C=C2SC(=S)N(CC(=O)NS(C)(=O)=O)C2=O)cc1	227 to 230
CC(C)(NC(=O)CCNC(=O)c1ccccc1)c1ccccc1	147 to 148
CCNc1cc(-c2c[nH]c(S)n2)ccn1	> 260
Cc1cc(=O)oc2cc(OS(N)(=O)=O)ccc12	161 to 164
C=CCc1cc(C(=O)O)ccc1O	119 to 123
Nc1c(CCO)cccc1C(O)c1ccc(Cl)cc1 (stereo not drawn)	132 to 134
Cc1cc(C)cc(-c2nnc(C(N)=O)o2)c1	230
O=C(Nc1nc2ccc(Sc3cnc4ncccn34)cc2s1)c1ccccc1	> 260

Further lines, results first:

melting point [°C]	Structure (SMILES)
125 to 126	CC(=O)Nc1ccc(-c2ccc(C(O)CCC(=O)O)cc2)cc1Br (stereo not drawn)
114 to 116	CC(=O)NCCC1CCc2ccc3nc(C(F)(F)F)oc3c21 (stereo not drawn)
82	CN1C(=O)CCC2c3ccc(Cl)cc3CCC21 (stereo not drawn)
166	CCc1cccc(C)c1CNc1nc(CO)cn2c(C)c(C)nc12
72 to 74	O=C(O)CN(CC(=O)O)c1cc(OCCCCCCCCCCCCOc2ccccc2)cc(OCCCCCCCCCCCCOc2ccccc2)c1
183 to 184	CN(O)C(=O)Nc1ccc(Oc2ccc(NC(=O)N(C)O)cc2)cc1
157 to 159	C=CC[C@@H]1C[C@@H](COc2ccc(-c3ccc(C#N)cc3)cc2)N(CCCC2CCCCC2)C1=O
125 to 132	CCOC(=O)c1cccc(C(=O)c2cccnc2-c2ccc(S(C)(=O)=O)cc2)c1
174 to 180	Cn1cc(C(=O)NS(=O)(=O)c2cccs2)cn1
156 to 157	O=C(O)CCCN(C(=O)c1cccc(C(F)(F)F)c1)c1ccccc1-c1ccccc1
244 to 245	N#Cc1cnn2c(-c3ccc(Cl)cc3)ccnc12
143 to 144	FC(F)(F)Sc1ccc2c(c1)C(=C1CCN(CC3CC3)CC1)c1ccccc1C=C2
153 to 155	C=C(C)C1CCC2C3C=CC4=CC(=O)CCC4(C)C3C(O)CC12C (stereo not drawn)
73 to 74	CC(=O)OCC1COc2c(ccc(F)c2F)N1 (stereo not drawn)
84 to 86.5	NS(=O)(=O)c1ccccc1C(=O)OCCO
135 to 136	Cc1ccc(N2CCOCC2)c(N=C2NCCN2CCO)c1
55	CCOC(=O)Nc1ccccc1SCc1ncon1
116 to 117	Cc1cnc(OCC(O)CNC(C)(C)C)c2cc(Cl)ccc12 (stereo not drawn)
163 to 164	Cc1c[nH]c(-c2ccccc2)c1-c1ccccc1
50	O=C(c1ccsc1)c1cccc2ccccc12

melting point [°C]	Structure (SMILES)
88 to 89	CCOC(=O)C=C(C)C=CC=C(C)C=Cc1c(C)sc(C)c1C
98 to 100	Cc1nc(N)sc1CCC1CCCCC1
62.1	CCCCCCNC(=O)c1ccc(N2N=C(C)C(=CNc3ccccc3CC)C2=O)cc1
200	O=C(O)c1ncsc1-c1cc(F)cc(F)c1
65 to 67	C=CCOc1cc(OCc2ccc3ccccc3c2)cc(C(=O)c2nccs2)c1
152	Fc1cccc2c(NCCc3ccc(Oc4ccc(C(F)(F)F)cn4)cc3)ncnc12
251	O=C(NN1CCCCC1)c1ccc(N2CCN(C(=O)N3CCC(c4cn[nH]c4)C3)c3ccccc32)cc1 (stereo not drawn)
135 to 138	Fc1ccc2c(c1)nc(Cl)c1nnc(C(F)(F)F)n12
225 to 227	COc1ccc(C(=O)Nc2ccccc2)cc1NC(=NC#N)Nc1cc(Cl)cc(Cl)c1
193 to 194	O=C1c2c(O)cccc2C(c2ccccc2)c2cccc(O)c21
210 to 212	COC(=O)C=Cc1ccc(-n2ccn(-c3ccc(C#N)cc3)c2=O)cc1
186 to 188	O=C(O)CS(=O)c1cccc(-c2nc(=O)c3ccccc3s2)n1 (stereo not drawn)
99 to 101	CC(=Cc1ccc(F)cc1)c1ccc2c(c1)C(C)(C)CCC2(C)C
210 to 212	CCOC(=O)c1ncc2[nH]c3ccc(Oc4ccc(Br)cn4)cc3c2c1COC
145 to 147	Nc1nc(-c2ccc(OCC(=O)NCC3CCCCC3)cc2)cs1
67 to 69	CC(=O)n1c(-c2ccc(C)cc2)cc2ccccc21
121 to 125	O=C(O)C(Sc1ccc(Cl)cc1)c1ccc(Oc2ccccc2)cc1 (stereo not drawn)
195 to 197	O=C(O)CCCCc1cccn2cncc12
177 to 178	COc1ccc(Cl)cc1C(=O)NC1COc2cc(C)ccc2C1=O (stereo not drawn)
134 to 136	CCC(C)(C)NC(=S)Nc1cc(Cl)cc(Cl)c1

melting point [°C]	Structure (SMILES)
117 to 119	COc1cc(N)c(C(N)=O)c(OC)c1
200 to 202	Cc1cc(C)c2c(c1)C=C(/C=C/C=C/C=C/C(=O)O)C(C)(C)O2
106 to 107	CC(=O)c1ccc2c(c1)ncn2-c1cccc(C(=O)OC2CCN(C)CC2)c1
119 to 120	Cc1cccc(N2CCC(N)=N2)c1
143 to 145	CCOC(=O)c1cnc2c(c(C)nc3cc(C)nn32)c1Cl
223 to 225	Cc1ccc(-c2nc(Cl)nc(Cl)c2-c2ccc(Cl)cc2)cc1
217 to 220	O=C1Cc2cccc(S(=O)(=O)c3ccccc3)c2N1
291 to 296	NS(=O)(=O)c1ccc(N2C(=O)CN(c3ccccc3)C2=O)cc1
232 to 235	CC(=O)Nc1c(F)ccc2nc(C)ccc12
79 to 81	COC(=O)CCCON1C(=O)c2ccccc2C1=O
188 to 191	CC(C)(C)OC(=O)Nc1sc(-c2cncc(F)c2)nc1F
54 to 55	Cc1cnc(CO)c(Cl)c1N1CCOCC1
227 to 230	O=C(NC(=O)c1c(Cl)cccc1Cl)Nc1cc(-c2ccc(C(F)(F)F)cc2)on1
215 to 216	NC(=O)Cc1ccc2c(c1)C(=O)Cc1cccnc1S2
164 to 165	O[C@@H]1[C@H](O)[C@H](O)CO[C@H]1n1c(Br)nc2cc(Cl)c(Cl)cc21
124 to 125	Cc1ccc(S(=O)(=O)OCC2COc3cc(Cl)c(Cl)cc3O2)cc1 (stereo not drawn)
144 to 145	CC(C)(C#N)c1cc(Cn2cncn2)cc(C(N)=O)c1
107 to 108	CCCCCS(=O)(=O)NC(=O)CCc1ccc(OCCOC)cc1OCc1ccc(Cl)cc1Cl
52.5 to 54.5	CCOCC(COCC)Oc1ccc(/C=C/CO)c(Oc2ncc(C(F)(F)F)cc2Cl)c1
